Laboratory results: publication PMC3997506, “Novel PPAR Pan Agonist, ZBH Ameliorates Hyperlipidemia and Insulin Resistance in High Fat Diet Induced Hyperlipidemic Hamster” (PLoS ONE, 2014)

Tests used:
hPPARα-LBD = target: T1, hPPARα-LBD (Homo sapiens, UniProt Q07869); experiment: Ligand binding assay with SPR (Biacore T100); conditions: steady state affinity fitting
T1 construct: purchased Cayman chemical
T1 sequence (Q07869 239-466 limits assumed): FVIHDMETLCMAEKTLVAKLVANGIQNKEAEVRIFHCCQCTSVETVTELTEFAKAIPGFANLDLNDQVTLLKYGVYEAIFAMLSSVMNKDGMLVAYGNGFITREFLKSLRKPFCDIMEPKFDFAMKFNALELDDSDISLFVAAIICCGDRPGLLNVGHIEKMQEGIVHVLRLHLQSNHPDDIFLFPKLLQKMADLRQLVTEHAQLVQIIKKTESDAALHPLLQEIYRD
Experimental: (§1) The binding affinities of ZBH for PPARα-LBD, PPARδ-LBD or PPARγ-LBD (Cayman chemical, MI, USA) were assayed using SPR-based Biacore T100 (GE Healthcare/Biacore, Uppsala, Sweden) as described previously, [20].

hPPARγ-LBD = target: T2, hPPARγ-LBD (Homo sapiens, UniProt P37231); experiment: Ligand binding assay with SPR (Biacore T100); conditions: steady state affinity fitting
T2 construct: purchased Cayman chemical
T2 sequence (P37231 238-503 limits assumed): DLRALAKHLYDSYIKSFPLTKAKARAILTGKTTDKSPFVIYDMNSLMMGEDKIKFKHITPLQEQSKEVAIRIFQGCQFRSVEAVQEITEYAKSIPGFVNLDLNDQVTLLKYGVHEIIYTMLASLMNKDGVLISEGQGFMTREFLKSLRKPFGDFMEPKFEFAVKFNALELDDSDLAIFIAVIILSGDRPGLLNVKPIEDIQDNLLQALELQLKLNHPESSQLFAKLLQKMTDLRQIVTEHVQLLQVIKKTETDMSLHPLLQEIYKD
Experimental: as §1

hPPARδ-LBD = target: T3, hPPARδ-LBD (Homo sapiens, UniProt Q03181); experiment: Ligand binding assay with SPR (Biacore T100); conditions: steady state affinity fitting
T3 construct: purchased Cayman chemical
T3 sequence (Q03181 211-439 limits assumed): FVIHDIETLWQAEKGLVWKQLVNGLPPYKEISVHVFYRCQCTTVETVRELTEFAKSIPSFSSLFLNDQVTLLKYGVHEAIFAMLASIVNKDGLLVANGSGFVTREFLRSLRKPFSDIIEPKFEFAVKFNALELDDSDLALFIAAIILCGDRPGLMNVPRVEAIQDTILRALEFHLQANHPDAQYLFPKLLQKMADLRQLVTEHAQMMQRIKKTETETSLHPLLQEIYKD
Experimental: as §1

hyperlipidemic hamsters = experiment: High fat diet induced hyperlipidemic hamster, 5-week oral treatment; format: in vivo, golden Syrian hamsters (Mesocricetus auratus)
Source text: Male golden Syrian hamsters (Mesocricetus auratus) weighing 90–110 g were purchased from Vital River Laboratory Animal Technology Co. Ltd. (Beijing, China). Animals were maintained on a 12-h day/night schedule with ad libitum access to nutrition and water. […] Blood samples were taken after overnight fasting from the suborbital sinus under light sevoflurane anesthesia on the fifth and tenth day for measurement of serum total cholesterol (TC) and triglyceride (TG). […] The dose selection of ZBH was based on previous pilot study. Hamsters with standard rodent diet were used as normal control. Compounds were dissolved in DMSO and suspended in 0.5% methylcellulose and administered by gavage once a day for 5 weeks. Individual body weight and cage food consumption were measured every two days. Dynamic serum lipid monitoring was performed weekly and blood samples were taken from the retro-orbital venous plexus under light ether anesthesia using a glass capillary tube after overnight fasting. Then the animal were sacrificed by cervical decapitation under anesthesia, and the liver, heart, epididymal white adipose tissue (eWAT) and gastrocnemius muscle were excised, rapidly frozen in liquid nitrogen and maintained at −80°C until analysis. Serum TC, TG and free fatty acids (FFA) were measured by using commercial kit (Nanjing Jiancheng, Bioengineering Institute, Nanjing, China) as previously described. Serum glucose, low-density lipoprotein cholesterol (LDLc) and high-density lipoprotein cholesterol (HDLc) were measured with the Hitachi 917 automated biochemistry analyzer (Roche diagnostics, Indianapolis, USA). Serum insulin was quantified by ELISA using a hamster insulin assay kit (Crystal Chem Inc., IL, and USA). The insulin sensitivity index (ISI) was calculated by the values of fasting blood glucose (FBG) and fasting blood insulin (FBI). ISI = 1/(FBG×FBI) 1000 [21]. […] After evaporation of the chloroform under nitrogen, lipid samples were resuspended in isopropyl alcohol, and TG and TC content was determined by enzymatic assay. […] Frozen liver samples were used to perform hepatic lipid specific staining with Oil Red O staining.

3T3-L1 adipocytes = experiment: Adiponectin expression in 3T3-L1 adipocytes; format: cell-based; conditions: 10–100 µM, dose dependent, data not shown
SIRT1 mRNA = experiment: Quantitative real-time PCR of tissues of hyperlipidemic hamsters; format: in vivo, golden Syrian hamsters (Mesocricetus auratus); conditions: short-term (3 days) and chronic (5 weeks) treatment
Experimental: To determine the relative mRNA expression levels of lipid metabolism-related genes, total RNA was isolated from the liver, white adipose tissue (WAT) or muscle and real-time PCR was performed with the ABI PRISM 7300 sequence detection system (Applied Biosystems, Warrington, UK) as previously described. The relative amount of all mRNAs was calculated using the comparative CT method. Target gene expression is presented relative to β-actin expression.
Figure 9 Effects of ZBH on gene expression in hyperlipidemic hamsters. Relative gene expression of the indicated genes in the liver (A and B), WAT (C and D) and skeletal muscle (E and F) of hyperlipidemic hamsters following 3 days (A, C and E) and/or 5 weeks (B, D and F) of ZBH or BEZ administration was determined by QPCR. Results are normalized to β-actin and expressed as mean fold increase of mRNA ±SD compared to the normal hamsters (NC). n = 3. *P<0.05, **P<0.01, ***P<0.001 vs. MC group.

[1] = stated in Introduction, no method given; cited from earlier work

With COc1ccc(/C=C/c2cc(OC)cc(OCCCC(C)(C)C(=O)O)c2)cc1 [ZBH, (E)-5-(3-methoxy-5-(4-methoxystyryl)phenoxy) -2,2-dimethylpentanoic acid] the Kd (hPPARα-LBD) was 0.826 µM, the Kd (hPPARγ-LBD) was 3.9 µM and the Kd (hPPARδ-LBD) was 4.17 µM. For the same compound, the Kidney weight (hyperlipidemic hamsters; 6.25 mg/kg, 5 weeks) was 1.01 ± 0.08 g, the Liver weight (hyperlipidemic hamsters; 6.25 mg/kg, 5 weeks) was 7.78 ± 0.23 g and the “Retroperitoneal WAT” value (hyperlipidemic hamsters; 6.25 mg/kg, 5 weeks) was 13.93 ± 0.82 g. The “Subcutaneous WAT” value (hyperlipidemic hamsters; 6.25 mg/kg, 5 weeks) was 7.28 ± 0.32 g, the iBAT (hyperlipidemic hamsters; 6.25 mg/kg, 5 weeks) was 0.23 ± 0.01 g and the Kidney weight (hyperlipidemic hamsters; 12.5 mg/kg, 5 weeks) was 0.95 ± 0.09 g. For the same compound, the Liver weight (hyperlipidemic hamsters; 12.5 mg/kg, 5 weeks) was 7.77 ± 0.31 g, the “Retroperitoneal WAT” value (hyperlipidemic hamsters; 12.5 mg/kg, 5 weeks) was 12.63 ± 0.66 g and the “Subcutaneous WAT” value (hyperlipidemic hamsters; 12.5 mg/kg, 5 weeks) was 6.53 ± 0.42 g. The iBAT (hyperlipidemic hamsters; 12.5 mg/kg, 5 weeks) was 0.21 ± 0.01 g, the “maximum decrease in serum insulin levels” value (hyperlipidemic hamsters; 25 mg kg^−1, 5 weeks) was 84% and the “serum FFA” value (hyperlipidemic hamsters; 25 mg kg^−1, after one-week treatment until the end) was “lowered remarkably”. For the same compound, the Kidney weight (hyperlipidemic hamsters; 25 mg/kg, 5 weeks) was 0.94 ± 0.05 g, the Liver weight (hyperlipidemic hamsters; 25 mg/kg, 5 weeks) was 8.52 ± 0.45 g and the “Retroperitoneal WAT” value (hyperlipidemic hamsters; 25 mg/kg, 5 weeks) was 10.43 ± 0.39 g. For the same compound, the “Subcutaneous WAT” value (hyperlipidemic hamsters; 25 mg/kg, 5 weeks) was 5.19 ± 0.12 g, the iBAT (hyperlipidemic hamsters; 25 mg/kg, 5 weeks) was 0.19 ± 0.01 g and the “hepatic TG contents / hepatic steatosis” value (hyperlipidemic hamsters; 5 weeks, Figure 7) was “greatly lowered”. For the same compound, the “serum GOT, GPT, CK and creatinine levels” value (hyperlipidemic hamsters; 5 weeks, Figure S1) was “not altered”, the “increase of the weight of the liver” value (hyperlipidemic hamsters; 6.25-25 mg/kg, after 5 weeks, vs MC) was 7%∼17 and the “serum TG, TC and LDLc” value (hyperlipidemic hamsters; 12.5 or 25 mg kg^−1) was “time and dose-dependent decrease”. For the same compound, the “impact on food intake” value (hyperlipidemic hamsters; Figure 5B) was “negligible”, the body weight gain (hyperlipidemic hamsters; ZBH 25 mg/kg, bezafibrate 50 mg/kg, Figure 5A) was “gained less weight” and the “increase in relative liver weight” value (hyperlipidemic hamsters; highest dose, relative to MC) was 17%. The adiponectin expression (3T3-L1 adipocytes) was “dramatically up-regulate”, the “SIRT1 mRNA expression in liver, adipose tissue and skeletal muscle” value (SIRT1 mRNA) was “upregulated” and the oral bioavailability [1] was 67%.
